# Test results: ChEMBL document CHEMBL1201862, “PubChem BioAssay data set” (2004)
# The source made the active and inactive calls.
# Key:
# [1] = molecular target: Cytochrome P450 3A4 (Homo sapiens, UniProt P08684);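 also: CYP3A4 tested as one member of a cytochrome P450 panel screen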
# [2] = molecular target: Cytochrome P450 2C9 (Homo sapiens, UniProt P11712)
# [3] = Trypanosoma cruzi growth suppression in host cells – NIH3T3 host cells, beta-gal luminescence, confirmation (AID 2044); format: functional, cell-based;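 also: intracellular parasites grown in NIH/3T3 mouse fibroblasts as host cells; luminescent beta-galactosidase reporter signal from transgenic T. cruzi replicating inside host cells; inhibitors lower the luminescence signal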
# [4] = NIH3T3 cell viability loss – ATP luminescence, mouse fibroblasts, counter-screen, dose response (AID 2010); format: functional, cell-based;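 also: cells exposed to compound for about 90 hours before reading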
# [5] = molecular target: T1, Corticotropin-releasing factor receptor 2/Corticotropin-releasing factor-binding protein (Homo sapiens, UniProt P24387+Q13324); assay: activators of CRF receptor 2 with binding protein – uHTS hits, confirmation (AID 602473); format: functional; conditions: read-out: EC50_Mean
# T1 sequence (Q13324 whole entry): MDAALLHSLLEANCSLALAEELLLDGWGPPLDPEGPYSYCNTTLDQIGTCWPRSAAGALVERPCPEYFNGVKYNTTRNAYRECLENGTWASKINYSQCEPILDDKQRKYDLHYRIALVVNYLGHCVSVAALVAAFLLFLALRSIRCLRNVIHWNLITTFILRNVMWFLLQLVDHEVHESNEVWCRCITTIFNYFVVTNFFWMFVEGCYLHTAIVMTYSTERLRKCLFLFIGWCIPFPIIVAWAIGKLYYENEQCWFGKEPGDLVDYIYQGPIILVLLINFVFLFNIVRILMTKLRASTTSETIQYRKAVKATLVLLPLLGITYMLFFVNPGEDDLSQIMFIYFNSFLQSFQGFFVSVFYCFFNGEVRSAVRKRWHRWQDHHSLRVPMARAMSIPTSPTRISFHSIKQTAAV
# T1 sequence (P24387 whole entry): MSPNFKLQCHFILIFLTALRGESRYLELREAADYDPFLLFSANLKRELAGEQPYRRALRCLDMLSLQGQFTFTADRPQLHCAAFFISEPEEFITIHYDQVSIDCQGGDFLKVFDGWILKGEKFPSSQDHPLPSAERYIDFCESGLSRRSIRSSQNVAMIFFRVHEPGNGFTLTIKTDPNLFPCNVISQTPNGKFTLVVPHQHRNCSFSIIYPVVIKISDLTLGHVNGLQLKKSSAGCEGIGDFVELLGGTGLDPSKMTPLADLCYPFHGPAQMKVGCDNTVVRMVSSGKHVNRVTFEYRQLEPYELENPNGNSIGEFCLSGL
# [6] = molecular target: T2, Heat shock factor protein 1 (Mus musculus, UniProt P38532); assay: decrease of HSF1-responsive luciferase luminescence – cell-based, NIH3T3, dose retest, confirmation (AID 2382); format: functional;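 also: NIH3T3 fibroblasts with HSF1-driven luciferase reporter stressed by proteasome inhibitor MG132; luminescence from HSF1-driven luciferase expression after 8 hours of MG132 stress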
# T2 sequence (P38532 whole entry): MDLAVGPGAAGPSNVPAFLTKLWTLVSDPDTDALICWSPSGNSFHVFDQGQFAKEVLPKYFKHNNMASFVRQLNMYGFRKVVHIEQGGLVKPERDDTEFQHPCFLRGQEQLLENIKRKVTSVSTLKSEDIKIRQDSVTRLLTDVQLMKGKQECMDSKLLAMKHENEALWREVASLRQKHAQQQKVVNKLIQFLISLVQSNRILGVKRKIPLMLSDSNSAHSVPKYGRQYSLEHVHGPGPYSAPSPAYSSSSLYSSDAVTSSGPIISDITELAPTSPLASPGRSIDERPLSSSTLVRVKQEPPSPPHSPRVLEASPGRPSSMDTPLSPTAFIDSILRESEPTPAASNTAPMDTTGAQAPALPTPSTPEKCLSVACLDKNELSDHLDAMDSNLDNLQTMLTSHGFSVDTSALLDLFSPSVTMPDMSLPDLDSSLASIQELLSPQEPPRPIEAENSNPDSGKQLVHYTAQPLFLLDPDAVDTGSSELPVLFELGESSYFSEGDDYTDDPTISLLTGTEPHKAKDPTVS
# [7] = Luminescence Cell-Based Dose Retest to Confirm Inhibitors of Cancer Stem Cells. [Related pubchem assays (depositor defined):AID2717, AID2721]; format: functional; conditions: Homo sapiens
# [8] = molecular target: Cytochrome P450 2C19 (Homo sapiens, UniProt P33261); assay: Cytochrome panel assay with activity outcomes. Panel member name: p450-cyp2c19 Compounds with AC50 equal or less than 10 uM are considered active; format: functional
# [9] = Luminescence Cell-Based Dose Response HTS to Identify Activators of Luciferase Translation or Activity in H4 […] Cells. [Related pubchem assays: 1829 (Project Summary), 1814 (Primary HTS)]; format: functional
# Chain of Cytochrome P450 3A4 (P08684 whole entry): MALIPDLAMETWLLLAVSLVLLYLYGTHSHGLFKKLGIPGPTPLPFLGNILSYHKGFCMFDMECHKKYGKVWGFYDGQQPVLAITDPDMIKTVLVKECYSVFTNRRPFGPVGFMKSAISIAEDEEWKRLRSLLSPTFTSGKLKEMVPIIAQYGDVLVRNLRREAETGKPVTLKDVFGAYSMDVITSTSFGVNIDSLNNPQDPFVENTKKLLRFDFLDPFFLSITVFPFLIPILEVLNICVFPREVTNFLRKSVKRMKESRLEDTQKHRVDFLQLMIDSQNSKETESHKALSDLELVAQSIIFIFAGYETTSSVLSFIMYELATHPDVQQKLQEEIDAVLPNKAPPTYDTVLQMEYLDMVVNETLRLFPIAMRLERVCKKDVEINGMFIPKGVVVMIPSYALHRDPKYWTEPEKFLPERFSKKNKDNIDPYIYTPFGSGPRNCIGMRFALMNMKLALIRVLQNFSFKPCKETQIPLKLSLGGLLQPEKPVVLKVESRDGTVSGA
# Chain of Cytochrome P450 2C9 (P11712 whole entry): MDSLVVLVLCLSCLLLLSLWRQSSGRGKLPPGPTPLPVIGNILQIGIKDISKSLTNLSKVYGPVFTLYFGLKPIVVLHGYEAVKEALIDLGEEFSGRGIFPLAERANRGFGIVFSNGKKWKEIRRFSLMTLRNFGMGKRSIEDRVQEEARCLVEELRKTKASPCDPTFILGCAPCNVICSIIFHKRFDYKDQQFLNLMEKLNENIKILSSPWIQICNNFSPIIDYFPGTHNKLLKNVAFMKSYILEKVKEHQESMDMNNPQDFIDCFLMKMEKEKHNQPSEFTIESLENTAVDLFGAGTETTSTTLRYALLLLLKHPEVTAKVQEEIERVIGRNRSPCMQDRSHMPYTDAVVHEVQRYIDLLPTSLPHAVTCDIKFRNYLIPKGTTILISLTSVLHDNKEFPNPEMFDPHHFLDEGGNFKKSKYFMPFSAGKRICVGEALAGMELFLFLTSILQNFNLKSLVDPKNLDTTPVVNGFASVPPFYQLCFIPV
# Chain of Cytochrome P450 2C19 (P33261 whole entry): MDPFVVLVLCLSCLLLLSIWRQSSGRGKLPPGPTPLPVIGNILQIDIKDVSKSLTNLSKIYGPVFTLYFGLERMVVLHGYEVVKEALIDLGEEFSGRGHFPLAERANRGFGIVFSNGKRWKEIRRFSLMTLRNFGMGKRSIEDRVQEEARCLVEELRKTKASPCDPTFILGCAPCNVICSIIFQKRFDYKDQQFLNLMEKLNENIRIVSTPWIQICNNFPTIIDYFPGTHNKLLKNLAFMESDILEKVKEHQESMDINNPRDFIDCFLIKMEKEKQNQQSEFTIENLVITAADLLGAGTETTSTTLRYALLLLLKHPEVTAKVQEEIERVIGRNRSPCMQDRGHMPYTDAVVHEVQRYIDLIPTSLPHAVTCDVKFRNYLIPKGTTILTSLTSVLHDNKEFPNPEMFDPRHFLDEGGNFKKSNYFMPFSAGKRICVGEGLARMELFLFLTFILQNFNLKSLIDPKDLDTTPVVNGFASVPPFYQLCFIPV
structure (smiles),measurement,setting,value
Clc1ccc(Cl)c(Nc2ccnc(SCc3ccccc3)n2)c1,AC50,[1],3.98 µM (inconclusive)
same,AC50,[2],6.31 µM (inconclusive)
O=C(CSc1ncc(-c2ccccc2)n1C1CCCC1)N1CCc2ccccc21,EC50,[3],1.81 µM (active)
same,EC50,[4],> 60 µM (not active)
same,EC50,[5],> 53 µM (inactive)
COc1ccccc1NC(=O)Cn1c(=O)c(N(C)C)c(N)n(C)c1=O,EC50,[6],> 195 µM (not active)
O=C(NNC(=S)Nc1ccccc1)c1ccco1,AC50,[2],35.5 µM (inconclusive)
COc1ccc(S(=O)(=O)/C(C#N)=C/Nc2cccc(OC)c2)cc1,EC50,[6],> 195 µM (not active)
Cc1cc2nc(-c3ccc(SCc4ccc(C#N)cc4)nc3)[nH]c2cc1C,EC50,[3],2.06 µM (active)
same,EC50,[4],> 60 µM (inconclusive)
N#CC(=C1CCCC1)c1nc(-c2ccccc2)cs1,AC50,[2],25.1 µM (inconclusive)
C[C@@H]1CC=C[C@H]2[C@H]1C(=O)N(Cc1ccccc1)[C@H]2c1ccc2ccccc2c1,AC50,[7],5.69 µM (active)
CCN1C(=O)c2ccccc2[S+]([O-])c2ccc(C(=O)NCc3ccc(OC)cc3)cc21 (centres undefined),EC50,[6],> 195 µM (not active)
COc1ccc(C(=O)C2CCCN(Cc3cccn3-c3ccc(Cl)cn3)C2)c(OC)c1 (centres undefined),EC50,[3],1.47 µM (active)
same,EC50,[4],> 60 µM (not active)
O=C1NC(=O)[C@@](Cc2ccccc2)(c2cccnc2)N1,AC50,[1],3.98 µM (inconclusive)
CN(C)Cc1ccccc1-c1cc(N(C)Cc2ccco2)ncn1,AC50,[1],25.1 µM (inconclusive)
Fc1cccc(Cl)c1/C=N\N=C1c2ccccc2-c2ccccc21,AC50,[2],3.16 µM (inconclusive)
COc1ccc(OC)c(Nc2c3ccccc3nc3ccccc23)c1,AC50,[7],3.78 µM (active)
COc1ccc(CN2CC=C(c3ccc(F)cc3)CC2)cc1Br,EC50,[6],> 195 µM (not active)
c1cncc(CNc2cc(-c3ccoc3)ncn2)c1,AC50,[1],3.98 µM (inconclusive)
CC(C)N(CCNC(=O)C1CCC(=O)N1Cc1ccc(F)cc1)Cc1ccccc1 (centres undefined),AC50,[2],22.4 µM (inconclusive)
COC(=O)[C@@]1(Cc2ccc(F)cc2)[C@H]2c3cc(C(=O)N4CCCC4)n(CCc4c[nH]c5ccc(OC)cc45)c3C[C@H]2CN1C(=O)c1ccccc1,AC50,[1],0.251 µM (inconclusive)
Fc1ccccc1Nc1nc(-c2ccncc2)nc2ccccc12,EC50,[3],1.32 µM (active)
same,EC50,[4],> 60 µM (not active)
CCC(=O)N(Cc1ccco1)c1nc(-c2ccccc2)cs1,AC50,[1],39.8 µM (inconclusive)
Cc1cc(OCC(=O)N2CCOCC2)ccc1NC(=O)c1ccccc1C,EC50,[6],> 195 µM (not active)
COc1cc(CCC(=O)OCn2nnc3ccccc3c2=O)cc(OC)c1OC,EC50,[6],> 195 µM (not active)
O=C(C1CCN(S(=O)(=O)N2CCOCC2)CC1)N1CCN(c2ccccc2)CC1,AC50,[2],22.4 µM (inconclusive)
CC(=O)OCC(=O)NCC(=O)c1c[nH]c2ccccc12,EC50,[6],> 195 µM (not active)
Cc1n[nH]c(Nc2ccccc2)c1[N+](=O)[O-],AC50,[1],25.1 µM (inconclusive)
CC1CN(S(=O)(=O)c2ccc(C(=O)Nc3nnc(-c4ccc5c(c4)CCCC5)o3)cc2)CC(C)O1 (centres undefined),EC50,[3],1.86 µM (active)
same,EC50,[4],3.39 µM (active)
CCN(CC)S(=O)(=O)c1cc(C(=O)Nc2ccccc2C(=O)O)ccc1OC,AC50,[1],12.6 µM (inconclusive)
C=CCOc1ccc(/C=N\NC(N)=S)cc1,EC50,[3],1.17 µM (active)
same,EC50,[4],> 60 µM (inconclusive)
CN1CCC[C@@H]1c1cccnc1.Cc1ccc(C(=O)O[C@@H](C(=O)O)[C@@H](OC(=O)c2ccc(C)cc2)C(=O)O)cc1,AC50,[8],inconclusive
CN(C)c1ccc(/N=C/c2nc(-c3ccccc3)oc2OC(=O)c2cccc(Br)c2)cc1,EC50,[9],31 µM (active)
C/C(=N\Nc1ccc(C(=O)O)cc1)c1nc2ccccc2n1C,EC50,[9],18.9 µM (active)
